The text below walks through data of patent US8349371B2, “Method for anti-oxidation, inhibiting activity and/or expression of matrix metalloproteinase, and/or inhibiting phosphorylation of mitogen-activated protein kinase using neonauclea reticulata leaf extracts” (China Medical University, priority 2010, dated 2013).

Where “and” joins values, the source holds several entries; their conditions need not be identical. Equal values may be shown once.

In assay [1] the test system is MMP-1. The experiment in a line: Inhibition test of matrix metalloproteinase expression in UVB-irradiated fibroblast Hs68 (western blotting): MMP-1. To be noted: expression relative to control group (1.00); UVB 40 mJ/cm^2, Hs68; 10 μg/mL. In kind it is cell-based, human. On the procedure: (§1) A total of 5×10^5 fibroblast Hs68 (human foreskin fibroblast, Bioresource Collection and Research Center (BCRC) number:60038, purchased from Food Industry Research and Development Institute (FIRDI)) was counted and cultivated in a culture medium (90% Dulbecco's modified Eagle's medium adjusted with 4 mM of L-glutamine, containing 1.5 g/L NaHCO3, 4.5 g/L glucose, and 10% heat-inactivated fetal bovine serum) with a diameter of 10 cm. After the fibroblast Hs68 grew to a density of 80%, the culture solution was removed, and the cells were rinsed with 5 mL of a phosphate buffer saline (PBS) solution once. Then, 3 mL of a phenol red-free culture solution containing the Neonauclea reticulata leaf water extract with different concentrations ([…]) was added into the culture medium, and was reacted for 1 hour. The cells were placed under ultraviolet light (40 mJ/cm^2, Ultraviolet B (UVB)) for irradiation. […] Using luminescence imaging technology with an associated analysis software and LAS-4000 (FUJIFILM) to record the image, and a quantitative analysis was carried out by multi Gauge […] […]

Assay [2] has as its system MMP-3. In words: Inhibition test of matrix metalloproteinase expression in UVB-irradiated fibroblast Hs68 (western blotting): MMP-3. In kind it is cell-based, human. To be noted: expression relative to control group (1.00); UVB 40 mJ/cm^2, Hs68; 10 μg/mL. As to the method:
as §1

The test system of assay [3] is MMP-9. In words: Inhibition test of matrix metalloproteinase expression in UVB-irradiated fibroblast Hs68 (western blotting): MMP-9. Format: cell-based, human. The following applies: expression relative to control group (1.00); UVB 40 mJ/cm^2, Hs68; 10 μg/mL. As to the method:
as §1
(Immunoblotting shows a protein as a band on a membrane.)

A short description of assay [4]: Anti-oxidation test: DPPH free radicals removal test. In kind it is biochemical. The following applies: DPPH scavenging, 50 μg/mL. As to the method: A 100 μL of the Neonauclea reticulata leaf water extract, methanol extract, or the hydrolytes thereof with different concentrations (10 to 100 μg/mL) and a 100 μL. DPPH solution (200 μM) dissolved in methanol were added in a 96-well microplate, and were mixed evenly and placed under 37° C. away from light for 30 minutes. The absorbance of the mixture was determined by an enzyme immunoassay instrument under a wavelength of 517 nm. In this test, the extract was replaced by 50 vol % propylene glycol as the control group, and ascorbic acid (vitamin C) was used as a positive control group, and DPPH was replaced by methanol for determining the background value. The ability of the Neonauclea reticulata leaf extract to remove free radicals was calculated by the following formula. The results are shown in Table 5 to Table 7 and FIG. 12 to FIG. 14. [formula]
(In general: The DPPH test is a chemical assay of radical scavenging.)

In the case of `O=C(O[C@@H]1Cc2c(O)cc(O)cc2O[C@@H]1c1cc(O)c(O)c(O)c1)c1cc(O)c(O)c(O)c1` [EGCG], the MMP-1 in assay [1] is 1.10 ± 0.15. The MMP-3 in assay [2] stood at 1.15 ± 0.16. This molecule also came in with an MMP-9 in assay [3] of 0.95 ± 0.26.
`O=C1O[C@H]([C@@H](O)CO)C(O)=C1O` [Vitamin C, ascorbic acid] displayed an Inhibition in assay [4] (Table 5) of 98.60 ± 0.32. Further, the “Inhibition Rate” value in assay [4] (Tables 6 and 7) is 88.36 ± 2.71 and 97.99 ± 0.12.
